Columns and labels:
[1] = system: Rice; assay: Transplanted rice safety evaluation; type: in vivo, rice (japonica rice/Indica rice); details: 60 g/ha; transplanted 3 leaf stage rice, 21 days after treatment
From the text: (§1) The activity level criteria for harmful plant damage (i.e., growth control rate) are as follows: • Level 5: growth control rate is above 85%; • Level 4: growth control rate is greater than or equal to 60% and less than 85%; • Level 3: growth control rate is greater than or equal to 40% and less than 60%; • Level 2: growth control rate is greater than or equal to 20% and less than 40%; • Level 1: growth control rate is greater than or equal to 5% and less than 20%; • Level 0: growth control rate is less than 5%.
In addition, the rice field soil that loaded into the 1/1,000,000 ha pot was leveled to keep water storage at 3-4 cm depth. The 3 leaf stage rice (japonica rice/Indica rice) was transplanted at 3 cm of transplanting depth the next day. The compound of the present invention was treated by the same way after 5 days of transplantation.
(§2) The fertility condition of Echinochloa crusgali, Scirpus juncoides, Bidens tripartita, Leptochloa chinensis, Sagittaria trifolia and Monochoria vaginalis 14 days after the treatment of the compound of the invention and the fertility condition of rice 21 days after the treatment of the compound of the invention respectively with the naked eye. Evaluate the weed control effect with 0-5 activity standard level. Many compounds show excellent activity and selectivity.

[2] = system: Rice(Longyang 16); assay: Comparison experiment (post-emergence), crop safety on direct seeding rice; type: in vivo
From the text: (§3) The above growth control rates are fresh weight control rates.
(§4) Experiment on weeding effect in post-emergence stage: monocotyledonous and dicotyledonous weed seeds (Descurainia sophia, Capsella bursa-pastoris, Galium aparine, Stellaria media, Lithospermum arvense, Rorippa indica, Alopecurus aequalis, Beckmannia syzigachne, Sclerochloa dura, Phleum paniculatum, Bromus japonicus, Aegilops tauschii, Phalaris arundinacea, Amaranthus retroflexus, Chenopodiaceae, Commelina communis, Sonchus arvensis, convolvulus arvensis, Cirsium setosum, Solanum nigrum, Acalypha australis, Digitaria sanguinalis, Echinochloa crusgalli, Setaria viridis, Setaria glauca, Leptochloa chinensis, Monochoria vaginalis, Sagittaria trifolia, Scirpus juncoides, Cyperus rotundus, Cyperus iria, Cyperus difformis, Fimbristylis, Portulaca oleracea, Xanthium sibiricum, Pharbitis nil) and major crop seeds (wheat, corn, rice, soybean, cotton, oilseed rape, millet, sorghum, potato, sesame, ricinus) were placed in plastic pots filled with soil, then covered with 0.5-2 cm of soil, allowed to grow in a good greenhouse environment. After 2 weeks of sowing, the test plants were treated in the 2 leaf stage. The tested compounds of the present invention were respectively dissolved in acetone, then added with Tween 80 and 1.5 liter/ha of emulsifiable concentrate of methyl oleate as synergist, diluted with a certain amount of water to obtain a solution with a certain concentration, and sprayed with a spray tower onto the plants. After the application, the plants were cultured for 15 days in the greenhouse, and then the experimental results of the weeding were counted. The doses of the used compounds were 500, 250, 125, 60, 30, 15 g/ha, and the averages were obtained by repeating for three times.
(§5) If there is no clear marker, the post-seedling test conditions are the same as above, and the experimental results are shown in Tables 4-7.
Longyang 16 is an important cultivated variety representative of long-grain fragrant rice in northeast China. Long-grain fragrant rice is sensitive to herbicides and prone to drug damage, especially HPPD herbicides such as mesotrione and benzobicylon. […] It was not consistent with the well-known structure-activity relationship that aryloxyphenoxypropionic acid herbicides and phenoxypropionic acid herbicides in effective form have high activity to weeds and heavy damage to crops, and in ineffective form have almost no activity.

[3] = system: Digitaria sanguinalis; assay: Comparison experiment (post-emergence) against racemate / S configuration; type: in vivo; details: 30 g/ha; 3-4 weeks after sowing, 4-5 leaf-stage of weed, 25DAA
[4] = system: Setaria viridis; assay: Weeding effect in post-emergence stage; type: in vivo; details: 250 g/ha; 2 leaf stage; 15 days after application; fresh weight control rate
In short: (§6)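 Reported levels reflect fresh weight growth control rate banded 0 (<5%) through 5 (>85%), averaged over three repetitions. Treatment: foliar spray of 2-leaf-stage greenhouse plants at 15 to 500 g/ha, with 1.5 liter/ha methyl oleate synergist; assessment 15 days after application.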

[5] = system: Echinochloa crusgali; assay: Weeding effect in post-emergence stage; type: in vivo; details: 250 g/ha; 2 leaf stage; 15 days after application; fresh weight control rate
In short: as §6

[6] = system: Abutilon theophrasti; assay: Weeding effect in post-emergence stage; type: in vivo; details: 250 g/ha; 2 leaf stage; 15 days after application; fresh weight control rate
In short: as §6

[7] = system: Digitaria sanguinalis; assay: Weeding effect in post-emergence stage; type: in vivo; details: 250 g/ha; 2 leaf stage; 15 days after application; fresh weight control rate
In short: as §6

[8] = system: Amaranthus retroflexus; assay: Weeding effect in post-emergence stage; type: in vivo; details: 250 g/ha; 2 leaf stage; 15 days after application; fresh weight control rate
In short: as §6

[9] = system: Sagittaria trifolia; assay: Weed control effect evaluation in rice field; type: in vivo; details: 60 g/ha; rice field pot, 14 days after treatment; ALS-inhibitor resistant weed from Heilongjiang
From the text: as §1
(§7) Rice field soil was loaded into a 1/1,000,000 ha pot. The seeds of Echinochloa crusgali, Scirpus juncoides, Bidens tripartita, Sagittaria trifolia, Monochoria vaginalis and Leptochloa chinensis were sowed and gently covered with soil, then left to stand still in greenhouse in the state of 0.5-1 cm of water storage. The tuber of Sagittaria trifolia was planted in the next day or 2 days later. It was kept at 3-4 cm of water storage thereafter. The weeds were treated by dripping the WP or SC water diluents prepared according to the common preparation method of the compounds of the present invention with pipette homogeneously to achieve specified effective amount when Echinochloa crusgali, Scirpus juncoides, Bidens tripartita, Monochoria vaginalis and Leptochloa chinensis reached 0.5 leaf stage and Sagittaria trifolia reached the time point of primary leaf stage.
as §2

[10] = system: Leptochloa chinensis; assay: Weed control effect evaluation in rice field; type: in vivo; details: 60 g/ha; rice field pot, 14 days after treatment
From the text: as §1, §7, §2

[11] = system: Echinochloa crusgali; assay: Weed control effect evaluation in rice field; type: in vivo; details: 60 g/ha; rice field pot, 14 days after treatment; ALS-inhibitor resistant weed from Heilongjiang
From the text: as §1, §7, §2

[12] = system: Monochoria vaginalis; assay: Weed control effect evaluation in rice field; type: in vivo; details: 60 g/ha; rice field pot, 14 days after treatment; ALS-inhibitor resistant weed from Heilongjiang
From the text: as §1, §7, §2

[13] = system: Leptochloa chinensis; assay: Comparison experiment (post-emergence) against racemate / S configuration; type: in vivo
From the text: as §3
as §4, with “After 2 weeks of sowing, the test plants were treated in the 2 leaf stage.” left out, “After the application, the plants were cultured for 15 days in the greenhouse, and then the experimental results of the weeding were counted. The doses of the used compounds were 500, 250, 125, 60, 30, 15 g/ha, and the averages were obtained by repeating for three times.” left out
as §5

[14] = system: Green Setaria viridis; assay: as above; type: in vivo; details: 3-4 weeks after sowing, 4-5 leaf-stage of weed
From the text: as §3
as §4, with “After 2 weeks of sowing, the test plants were treated in the 2 leaf stage.” left out, “After the application, the plants were cultured for 15 days in the greenhouse, and then the experimental results of the weeding were counted. The doses of the used compounds were 500, 250, 125, 60, 30, 15 g/ha, and the averages were obtained by repeating for three times.” left out
as §5

[15] = system: Abutilon theophrasti; assay: as above; type: in vivo; details: 30 g/ha; 3-4 weeks after sowing, 4-5 leaf-stage of weed, 25DAA
From the text: as §3
as §4, with “After 2 weeks of sowing, the test plants were treated in the 2 leaf stage.” left out, “After the application, the plants were cultured for 15 days in the greenhouse, and then the experimental results of the weeding were counted. The doses of the used compounds were 500, 250, 125, 60, 30, 15 g/ha, and the averages were obtained by repeating for three times.” left out
as §5

[16] = system: key weeds such as Digitaria sanguinalis, Leptochloa chinensis; assay: Comparison experiment (post-emergence, Tables 4-7), herbicidal activity on weeds not listed separately; type: in vivo; details: dose of 125, 60, 30, 15 g/ha
In short: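 Readout: fresh weight control rate, counted 15 days post-spray and averaged over three replicates. Pot-grown plants (seeds under 0.5-2 cm soil) were treated at the 2 leaf stage, two weeks after sowing, with 15–500 g/ha compound plus methyl oleate synergist at 1.5 liter/ha.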

[17] = system: rice and other crops; assay: Comparison experiment (post-emergence, Tables 4-7), crop safety; type: in vivo; details: dose of 125, 60, 30, 15 g/ha
In short: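 Post-emergence spray-tower application at 500, 250, 125, 60, 30, 15 g/ha to 2-leaf-stage plants; formulation acetone, Tween 80, water, 1.5 liter/ha methyl oleate emulsifiable concentrate as synergist. Fresh weight control rate scored 15 d after treatment in greenhouse, triplicate averages.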

SMILES | Herbicidal effects of compounds, Rice, 0-5 activity standard level [1] | weeding effect in post-emergence stage, activity level (growth control rate), Setaria viridis [4] | weeding effect in post-emergence stage, activity level (growth control rate), Echinochloa crusgali [5] | weeding effect in post-emergence stage, activity level (growth control rate), Abutilon theophrasti [6] | weeding effect in post-emergence stage, activity level (growth control rate), Digitaria sanguinalis [7] | weeding effect in post-emergence stage, activity level (growth control rate), Amaranthus retroflexus [8] | Herbicidal effects of compounds, Sagittaria trifolia, 0-5 activity standard level [9] | Herbicidal effects of compounds, Leptochloa chinensis, 0-5 activity standard level [10] | Herbicidal effects of compounds, Echinochloa crusgali, 0-5 activity standard level [11] | Herbicidal effects of compounds, Monochoria vaginalis, 0-5 activity standard level [12] | activity to key weeds such as Digitaria sanguinalis, Leptochloa chinensis compared with the corresponding racemate or S configuration [16] | safety to rice and other crops compared with the corresponding racemate or S configuration [17] | other results
CCC[S@@+]([O-])c1c(C(F)(F)F)ccc(C(=O)Nc2nnc(C)o2)c1F [Compound 3] | 0 (Level 0: growth control rate is less than 5%) | 5 (Level 5: growth control rate is above 85%) | 5 (Level 5: growth control rate is above 85%) | 5 (Level 5: growth control rate is above 85%) | 5 (Level 5: growth control rate is above 85%) | 5 (Level 5: growth control rate is above 85%) | 5 (Level 5: growth control rate is above 85%) | 5 (Level 5: growth control rate is above 85%) | 5 (Level 5: growth control rate is above 85%) | 5 (Level 5: growth control rate is above 85%) | – | – | Results of comparison experiment, Rice(Longyang 16) (250 g/ha) ([2]; 250 g/ha, 1.5-2 leaf-stage of direct seeding rice variety Longyang 16, 25 DAA): 0%; Results of comparison experiment, Rice(Longyang 16) (500 g/ha) ([2]; 500 g/ha, 1.5-2 leaf-stage of direct seeding rice variety Longyang 16, 25 DAA): 0%; safety to rice (Longyang 16), in words ([2]; summary of Table 5): higher safety; Results of comparison experiment, Digitaria sanguinalis (30 g/ha) [3]: 100%; Results of comparison experiment, Leptochloa chinensis (60 g/ha) ([13]; 60 g/ha, 3-4 weeks after sowing, 4-5 leaf-stage of weed, 25DAA): 85%; Results of comparison experiment, Leptochloa chinensis (125 g/ha) ([13]; 125 g/ha, 3-4 weeks after sowing, 4-5 leaf-stage of weed, 25 DAA (Table 5)): 100%; activity against key weeds such as Leptochloa chinensis, in words ([13]; summary of Table 5): better activity; Results of comparison experiment, Green Setaria viridis (30 g/ha) ([14]; 30 g/ha, 25 DAA (Table 5)): 75%; Results of comparison experiment, Green Setaria viridis (60 g/ha) ([14]; 60 g/ha, 25DAA): 100%; Results of comparison experiment, Abutilon theophrasti (30 g/ha) [15]: 100%
Cc1nnc(NC(=O)c2ccc(C(F)(F)F)c([S@+]([O-])CCCF)c2F)o1 [Compound 26] | 0 (Level 0: growth control rate is less than 5%) | 5 (Level 5: growth control rate is above 85%) | 5 (Level 5: growth control rate is above 85%) | 5 (Level 5: growth control rate is above 85%) | 5 (Level 5: growth control rate is above 85%) | 5 (Level 5: growth control rate is above 85%) | 5 (Level 5: growth control rate is above 85%) | 5 (Level 5: growth control rate is above 85%) | 5 (Level 5: growth control rate is above 85%) | 5 (Level 5: growth control rate is above 85%) | better activity | higher safety | –
CCCC[S@@+]([O-])c1c(C(F)(F)F)ccc(C(=O)Nc2nnc(C)o2)c1F [Compound 4] | 0 (Level 0: growth control rate is less than 5%) | 5 (Level 5: growth control rate is above 85%) | 5 (Level 5: growth control rate is above 85%) | 5 (Level 5: growth control rate is above 85%) | 5 (Level 5: growth control rate is above 85%) | 5 (Level 5: growth control rate is above 85%) | 5 (Level 5: growth control rate is above 85%) | 5 (Level 5: growth control rate is above 85%) | 5 (Level 5: growth control rate is above 85%) | 5 (Level 5: growth control rate is above 85%) | better activity | higher safety | –

From patent publication US12643871B2, “Aryl formamide compound containing chiral sulfur oxide or salt thereof, preparation method, herbicidal composition and use thereof” (Qingdao Kingagroot Chemical Compound Co., Ltd., priority 2019, dated 2026)
